Test results published in patent US6500610B1, “Methods for identifying compounds for inhibiting of neoplastic lesions, and pharmaceutical compositions containing such compounds” (Cell Pathways, INC, priority 1997, dated 2002).
Structures can show the parent of a compound that is named as a salt. Where two headings read alike, the source gives them in different places.

Tests used:
rats [1] = assay: Seven-day dose-range finding study in rats; format: in vivo, rat; conditions: seven days
rats [2] = assay: 28-day study in rats; format: in vivo, rat
[3] = tested on: LNCaP prostate tumor cell line; assay: Histone-associated DNA fragmentation in LNCaP; format: cell-based; conditions: 50 μM free base, up to 4 days
Procedure: (§1) The androgen-sensitive prostate tumor cell line, LNCaP (from ATCC (Rockville, Md.)) was propogated under standard conditions using […] medium containing 5% fetal calve serum and 2 mM glutamine. Primary prostate epithelial cell cultures (PrEC) derived from normal prostate (from Clonetics Inc. (San Diego, Calif.)) were grown under the same conditions as the tumor cell line except a serum-free medium optimized for the growth of such cultures was used (Clonetics Inc). For the experiments, LNCaP or PrEC cells were seeded in 96 well plates at a density of 10,000 cells per well. After 24 hours, the cells were treated with either vehicle (0.1% DMSO) or 50 μM Compound I (free base) solubilized in DMSO. After various drug treatment times (4, 24, 48, 72, or 99 hours) the cells were lysed and processed for measurement of histone-associated DNA as an indicator of apoptotic cell death (see, Piazza et al., Cancer Research 57: 2452-2459, 1997).

[4] = tested on: PrEC primary prostate epithelial cells from normal prostate; assay: Histone-associated DNA fragmentation in PrEC; format: cell-based; conditions: 50 μM, up to 4 days
Procedure: as §1

patients = assay: Single, escalating dose human clinical safety study; format: in vivo; conditions: oral
[5] = tested on: azoxymethane-induced aberrant crypt foci in male Fisher 344 rats; assay: Azoxymethane-induced aberrant crypt foci (ACF) model; format: in vivo; conditions: in the rat chow
Procedure: The growth inhibition IC50 value obtained for Compound I was 0.7 μM in the SW-480 cell line. […] This established rodent model of azoxymethane (“AOM”)-induced carcinogenesis was used to assess the effects of Compound I (free base and salt) on colon cancer development in vivo. ACF are precursors to colonic tumors, and ACF inhibition is predictive of chemo-preventive efficacy.
In the rats in this experiment, ACF initiation was achieved by two consecutive weekly injections of the carcinogen. Compound I was administered one week prior to ACF initiation and for the duration of the experiment. ACFs were scored after 5 weeks of treatment. Compound I was administered orally to male Fisher 344 rats in the rat chow. Daily food consumption (mg/kg body weight) varied over the course of the study, and therefore Compound I dose was expressed a grams per kg of diet to provide a basis of comparison between doses. […] The experimental groups gained less weight than the controls, which was indicative of bioavailability. However, the weight differences were less than 10% and not considered to affect ACF formation.
The free base of Compound I inhibited ACF formation as measured by a reduction of crypts per colon. […]

Colo 205 (Colon) = assay: Neutral red cytotoxicity assay, Colo 205; format: cell-based, human; conditions: free base, five days
Procedure: (§2) Compound I's activity is not confined to activity against colon cancer cell lines or animal models of colon cancer. It has a broad range of anti-neoplastic effects in various neoplastic cell lines. Various types of human cancer cell lines were propagated under sterile conditions in RPMI 1640 medium with 10% fetal bovine serum, 2 mM L-glutamine and sodium bicarbonate. To determine growth inhibitory effects of Compound I, cells were seeded in 96-well plates at a density of 1000 cells per well. Twenty-four hours after plating, the cells were dosed with various concentrations of the free base of Compound I solubilized in DMSO (final concentration 0.1%). The effect of the drug on tumor cell growth was determined using the neutral red cytotoxicity assay following five days of continuous treatment. Neutral red is a dye that is selectively taken up by viable cells by an ATP-dependent transport mechanism.

HCT-15 (Colon) = assay: Neutral red cytotoxicity assay, HCT-15; format: cell-based, human; conditions: free base, five days
Procedure: as §2

HT-29 (Colon) = assay: Neutral red cytotoxicity assay, HT-29; format: cell-based, human; conditions: free base, five days
Procedure: as §2

SW-620 (Colon) = assay: Neutral red cytotoxicity assay, SW-620; format: cell-based, human; conditions: free base, five days
Procedure: as §2

DU145 (Prostate) = assay: Neutral red cytotoxicity assay, DU145; format: cell-based, human; conditions: free base, five days
Procedure: as §2

NCI-H23 (Lung) = assay: Neutral red cytotoxicity assay, NCI-H23; format: cell-based, human; conditions: free base, five days
Procedure: as §2

NCI-H460 (Lung) = assay: Neutral red cytotoxicity assay, NCI-H460; format: cell-based, human; conditions: free base, five days
Procedure: as §2

NCI-H82 (Lung) = assay: Neutral red cytotoxicity assay, NCI-H82; format: cell-based, human; conditions: free base, five days
Procedure: as §2

MDA-MB-435 (Breast) = assay: Neutral red cytotoxicity assay, MDA-MB-435; format: cell-based, human; conditions: free base, five days
Procedure: as §2

UISO-BCA-1 (Breast) = assay: Neutral red cytotoxicity assay, UISO-BCA-1; format: cell-based, human; conditions: free base, five days
Procedure: as §2

rats [6] = conditions: rat, in vivo
dogs = conditions: dog, in vivo
[7] = Acute toxicity study in rats; conditions: rat, in vivo
[8] = Acute and seven-dose toxicity in dogs; conditions: both, dog, in vivo, po, 1000 mg/kg

## CC1=C(CC(=O)NCc2ccccc2)c2cc(F)ccc2/C1=C\c1ccncc1 [Compound I, (Z)-5-fluoro-2-methyl-(4-pyridylidene)-3-(N-benzyl)indenylacetamide hydrochloride]
Rats [1]; 50 mg/kg/day
  signs of toxicity: no observable signs of toxicity
Rats [1]; 500 mg/kg/day
  treatment-related effects: increase in absolute and relative liver weights in female rats
Rats [1]; 2000 mg/kg/day
  treatment-related effects: labored breathing and/or abnormal respiratory sounds, decreased weights gains and food consumption in male rats, and increased liver weights in female rats
Rats [2]; 28 days, 2000 mg/kg/day
  organ weights: statistically significant increase in liver weights
Rats [2]; 28 days, 50, 500 and 2000 mg/kg/day
  clinical observations: no abnormal clinical observations
[3]
  histone-associated fragmented DNA: time-dependent increase
[4]
  DNA fragmentation: did not affect DNA fragmentation
patients
  side effects: no significant side effects at any dose
[5]
  body weight difference to controls: less than 10%
Colo 205 (Colon)
  GI90: 2.4 µM
HCT-15 (Colon)
  GI90: 3.0 µM
HT-29 (Colon)
  GI90: 8.0 µM
SW-620 (Colon)
  GI90: 2.5 µM
DU145 (Prostate)
  GI90: 2.8 µM
NCI-H23 (Lung)
  GI90: 2.5 µM
NCI-H460 (Lung)
  GI90: 30.0 µM
NCI-H82 (Lung)
  GI90: 5.8 µM
MDA-MB-435 (Breast)
  GI90: 2.3 µM
UISO-BCA-1 (Breast)
  GI90: 4.7 µM
Rats [6]; ip, 1000 mg/kg
  body weight gain: reduced body weight gain
Rats [6]; po, 4000 mg/kg
  body weight gain: body weight gains were slightly reduced
dogs; 1000 mg/kg
  signs of toxicity: no signs of toxicity
dogs; 1000 mg/kg/day
  drug-related effects: At no time in either dosing phase were any obvious signs of drug-related effects observed
[7]; ip, 1000 mg/kg
  LD50: > 1000 mg/kg
[7]; po
  LD50: > 4000 mg/kg
[8]
  LD50: > 1000 mg/kg
